What was measured:
[1] = Oxygen Radical Absorbance Capacity (ORAC); conditions: Trolox equivalents

O=C1O[C@H]([C@@H](O)CO)C(O)=C1O [Vitamin C, Ascorbic acid]
DPPH IC50 (DPPH scavenging): 1.93 µg/mL
ORAC (μmol TE/gm) [1]: 3400 μmol TE/gm

O=C(O)c1cc(O)c(O)c(O)c1 [Gallic acid, gallic acid]
DPPH IC50 (DPPH scavenging): 0.32 µg/mL
ORAC (μmol TE/gm) [1]: 6712 μmol TE/gm
